Structures can show the parent of a compound that is named as a salt. *1 amine or outer side, *2 acyl side, *3 side chain or, on linkers, in order; H or OH if unused. Where a SMILES comes first, the peptide text is derived from it. Bridges are numbered along the chain shown (N, C = ends). [ ]: non-standard residue; d: D form. The star is where a group is joined. hTyr(3S-OH,4S-OH,3'-OSO3H) = N[C@H](C(=O)O)[C@H](O)[C@@H](O)c1ccc(O)c(OS(=O)(=O)O)c1; Orn(4R-OH,5R-OH) = O=C([C@H](C[C@@H](O)[C@@H](O)N[*:3])N[*:1])[*:2]; Pro(3S-OH,4S-Me) = C[C@H]1CN[C@H](C(=O)O)[C@H]1O; X1 = CCCCCOc1ccc(-c2cc(-c3ccc(C(=O)*)cc3)no2)cc1; Gln(3R-OH) = NC(=O)C[C@@H](O)[C@H](N)C(=O)O; Hyp = O=C(O)[C@@H]1C[C@@H](O)CN1
Target: interaction between cTnC and switch peptide of cTnI (cTnISP) (Homo sapiens, UniProt P63316)
Assay: Fluorescence polarization HTS and dose-response, cTnC/FAM-cTnISP
Format: binding
Conditions: cTnISP primary screen, single concentration 50 μmol/L

FP (mP) (TOCRIScreen library)	FP (mP) (LOPAC 1280 library)	FP (mP) (ENZO Screenwell library)	SMILES
82	–	–	O=C(c1ccc(Nc2nccc(-c3cc4ccccc4s3)n2)cc1)N1CCC(N2CCCC2)CC1 [IKK 16]
–	84.3	–	O=C(c1ccc(Nc2nccc(-c3cc4ccccc4s3)n2)cc1)N1CCC(N2CCCC2)CC1 [IKK-16 dihydrochloride]
84.3	–	–	CCc1ccc(OCc2ccccc2C(=O)Nc2ccc3nc(C)cc(N)c3c2)cc1 [JTC 801]
–	86.8	–	O=C(O)C(O)C(O)C(=O)O.Oc1ccc2c(c1)CC[C@H](c1ccccc1)[C@@H]2c1ccc(OCCN2CCCC2)cc1 [Lasofoxifene tartrate]
–	–	119.8	N[C@@H](Cc1cc(I)c(Oc2cc(I)c(O)c(I)c2)c(I)c1)C(=O)[O-].[Na+] [Levothyroxine·Na]
–	86.5	–	CSc1ccc2c(c1)C(N1CCN(C)CC1)Cc1ccccc1S2 (stereo not drawn) [Methiothepin mesylate]
84.6	–	–	COc1cc(N2CCC(O)CC2)ccc1Nc1cc(Nc2ccccc2S(=O)(=O)C(C)C)c2cc[nH]c2n1.Cl.Cl [Mps1-IN-1 dihydrochloride]
–	88.7	–	CC(C)[C@H]1c2ccc(F)cc2CC[C@@]1(CCN(C)CCCc1nc2ccccc2[nH]1)OC(=O)C1CC1 [NNC 55-0396]
87.5	–	–	CC(C)(Cc1ccc2ccccc2c1)NC[C@@H](O)COc1cccc(Cl)c1C#N.Cl [NPS 2143 hydrochloride]
89.5	–	–	CCN(CC)CCCC(C)Nc1nc(C)cc(Nc2ccc3nc(C)cc(N)c3c2)n1 (stereo not drawn) [NSC 23766]
68.4	–	–	Nc1ncnc2c1c(-c1cccc(OCc3ccccc3)c1)cn2C1CC(CN2CCCC2)C1 (stereo not drawn) [NVP ADW 742]

Second part, the molecule before the results:

SMILES	FP (mP) (TOCRIScreen library)	FP (mP) (LOPAC 1280 library)	FP (mP) (ENZO Screenwell library)
c1ccc(Cn2c(-c3ccc(OC[C@H](C4CCNCC4)n4c(-c5ccccc5)nc5ccccc54)cc3)nc3ccccc32)cc1 [Deltarasin]	87.7	–	–
CCCCCCCCNC(=O)/C(C#N)=C/c1cn(CCCN(C)C)c2ccccc12 [Dynole 34-2]	64.1	–	–
CCOc1cc(C(=O)N2CCC(N3CCN(C)CC3)CC2)ccc1Nc1ncc2c(n1)N(C1CCCC1)c1ccccc1C(=O)N2C [ERK5-IN-1]	64.9	–	–
Cc1c2ccncc2c(C)c2c1[nH]c1ccccc12 [Ellipticine]	–	86.1	–
CCN(CC)CCOc1ccc(/C(=C(/Cl)c2ccccc2)c2ccccc2)cc1.Cl [Enclomiphene hydrochloride]	–	78.4	–
CCn1c(=O)c(-c2ccc(Cl)cc2Cl)cc2cnc(Nc3ccc(N4CCNCC4)c(F)c3)nc21 [FRAX 486]	83.2	–	–
OCCN1CCN(CCCN2c3ccccc3Sc3ccc(C(F)(F)F)cc32)CC1 [Fluphenazine dihydrochloride]	–	87.3	–
OCCN1CCN(CCCN2c3ccccc3Sc3ccc(C(F)(F)F)cc32)CC1 [Fluphenazine.HCl]	–	–	76.1
O=C1NCN(c2ccccc2)C12CCN(CCCC(c1ccc(F)cc1)c1ccc(F)cc1)CC2 [Fluspirilene]	–	88.6	–
CN(C(=O)CN1C(=O)COc2cc(Cl)c(Cl)cc21)[C@@H](CN1CCCC1)c1ccc(-c2cccc(C(N)=O)c2)cc1.Cl [GSK 1562590 hydrochloride]	89.9	–	–
COc1cc2ncnc(Nc3ccc(F)c(Cl)c3)c2cc1OCCCN1CCOCC1 [Gefitinib]	81.8	–	83.7
CCOc1cc2ncc(C#N)c(Nc3ccc(OCc4cccc(F)c4)c(Cl)c3)c2cc1NC(=O)/C=C/CN(C)C [HKI 357]	73.4	–	–
Cc1nc(Nc2cnn(C3CCNCC3)c2)nc2c1N(C)C(=O)c1cc3ccccc3cc1N2C [HTH 01-015]	87.1	87	–
CCCCCOc1ccc(-c2cc(-c3ccc(C(=O)N[C@H]4C[C@@H](O)[C@@H](O)NC(=O)[C@@H]5[C@@H](O)[C@@H](C)CN5C(=O)[C@H]([C@H](O)CC(N)=O)NC(=O)[C@H]([C@H](O)[C@@H](O)c5ccc(O)c(OS(=O)(=O)O)c5)NC(=O)[C@@H]5C[C@@H](O)CN5C(=O)[C@H]([C@@H](C)O)NC4=O)cc3)no2)cc1 [Micafungin] (X1-[Orn(4R-OH,5R-OH)]T[Hyp][hTyr(3S-OH,4S-OH,3'-OSO3H)][Gln(3R-OH)][Pro(3S-OH,4S-Me)]; lactam 1-C)	–	–	128.6
